“Also recorded” adds a separate entry of the source.
Tests used:
cell differentiation = settings: prior art; cited from earlier work
[1] = cited from earlier work; for calcemic activity as compared to 1α,25-dihydroxyvitamin D3: prior-art patents
vitamin D receptors = target: T1, vitamin D receptors (Homo sapiens, UniProt P11473); settings: prior-art patents; cited from earlier work
T1 sequence (P11473 1-427): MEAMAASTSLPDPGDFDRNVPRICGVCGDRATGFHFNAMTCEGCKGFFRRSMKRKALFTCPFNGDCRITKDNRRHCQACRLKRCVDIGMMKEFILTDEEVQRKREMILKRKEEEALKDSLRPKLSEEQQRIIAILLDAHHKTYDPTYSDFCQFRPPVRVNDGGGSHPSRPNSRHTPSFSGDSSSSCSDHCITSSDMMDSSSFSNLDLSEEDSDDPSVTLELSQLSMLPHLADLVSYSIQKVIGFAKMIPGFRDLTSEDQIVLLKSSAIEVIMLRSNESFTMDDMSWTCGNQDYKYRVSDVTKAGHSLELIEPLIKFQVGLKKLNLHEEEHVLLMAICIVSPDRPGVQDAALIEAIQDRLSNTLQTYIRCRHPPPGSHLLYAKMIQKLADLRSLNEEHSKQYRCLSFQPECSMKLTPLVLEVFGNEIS

[2] = PTH suppression and hypercalcemia; assay type: in vivo, Sprague-Dawley rats; settings: normal rats; expected
Protocol: (E) PTH Suppression and Hypercalcemia
Adult, female Sprague-Dawley rats are obtained from Harlan (Madison, Wis.).
Upon receipt, the animals are identified by individual tail marks. Animals may then be housed in suspended, stainless steel, wire-bottom cages. Each cage may contain one animal. The animal rooms are maintained at a temperature of 68 to 72° F. and a relative humidity of 25 to 75%. The holding rooms are set to provide 12 hours of light per day. Water and a purified rodent diet (Suda et al., Purified Rodent Diet-Diet 11) containing […] 0.3% phosphorus and fat soluble vitamins A, D, E and K are provided ad libitum
Animals are randomly assigned to treatment groups (5 animals/group). All doses are administered intraperitoneally in 100 microliters of propylene glycol. […]
Twenty-four hours after the final dose, blood is collected from the tail artery and the concentration of bioactive serum PTH is measured using the rat BioActive Intact PTH ELISA Kit from Immutopics, Inc. (San Clemente, Calif.).
Twenty-four hours after the final dose, approximately 1 ml of blood is collected from the tail artery of each experimental animal. […] The level of calcium is determined by diluting the serum into 0.1% lanthum chloride and measuring the absorbance on an atomic absorption spectrophotometer (Perkin Elmer Model 3110, Shelton, Conn.).

[3] = target: T2, full-length recombinant rat vitamin D receptor (Rattus norvegicus, UniProt P13053); assay: Vitamin D receptor competitive binding with [3H]-1,25-(OH)2-D3; settings: competition with [3H]-1,25-(OH)2-D3, recombinant rat receptor; FIG. 1
T2 construct: Full-length recombinant rat receptor was expressed in E. coli BL21(DE3) Codon Plus RIL cells; histidine tag (C); made in house; host or cells: E. coli BL21(DE3) Codon Plus RIL
T2 sequence (P13053 1-423): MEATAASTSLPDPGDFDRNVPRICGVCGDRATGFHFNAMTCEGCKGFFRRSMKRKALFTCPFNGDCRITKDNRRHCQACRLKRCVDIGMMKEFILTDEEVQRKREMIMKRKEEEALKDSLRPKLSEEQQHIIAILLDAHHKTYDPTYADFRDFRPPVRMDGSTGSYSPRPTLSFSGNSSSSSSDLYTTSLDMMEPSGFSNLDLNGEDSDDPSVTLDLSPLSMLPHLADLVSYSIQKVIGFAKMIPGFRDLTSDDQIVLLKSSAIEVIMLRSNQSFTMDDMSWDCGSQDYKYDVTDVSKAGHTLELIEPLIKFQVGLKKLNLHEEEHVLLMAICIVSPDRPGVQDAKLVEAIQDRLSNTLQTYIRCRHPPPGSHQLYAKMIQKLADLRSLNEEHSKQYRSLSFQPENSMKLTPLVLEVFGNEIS
Protocol: The first system was a nickel affinity resin that utilizes the C-terminal histidine tag on this protein. The protein that was eluted from this resin was further purified using ion exchange chromatography (S-Sepharose Fast Flow). Aliquots of the purified protein were quick frozen in liquid nitrogen and stored at −80° C. until use. For use in binding assays, the protein was diluted in TEDK50 (50 mM Tris, 1.5 mM EDTA, pH7.4, 5 mM DTT, 150 mM KCl) with 0.1% Chaps detergent. The receptor protein and ligand concentration was optimized such that no more than 20% of the added radiolabeled ligand was bound to the receptor.
The following day, 100 mcl of hydroxylapatite slurry (50%) was added to each tube and mixed at 10-minute intervals for 30 minutes. The hydroxylapaptite was collected by centrifugation and then washed three times with Tris-EDTA buffer (50 mM Tris, 1.5 mM EDTA, pH 7.4) containing 0.5% Titron X-100. After the final wash, the pellets were transferred to scintillation vials containing 4 ml of Biosafe II scintillation cocktail, mixed and placed in a scintillation counter. Total binding was determined from the tubes containing only radiolabeled ligand.

[4] = test system: Human promyelocytic leukemia (HL60) cells; assay: HL-60 differentiation (nitro blue tetrazolium reduction); assay type: cell-based; settings: 4 days, NBT reduction, FIG. 4
Protocol: FIG. 4 is a graph comparing the percent HL-60 cell differentiation as a function of the concentration of NEL with that of 1,25(OH)2D3.
(B) HL-60 Differentiation
The study drugs were dissolved in ethanol and the concentrations determined using UV spectrophotometry. Serial dilutions were prepared so that a range of drug concentrations could be tested without changing the final concentration of ethanol (≦0.2%) present in the cell cultures.
Human promyelocytic leukemia (HL60) cells were grown in RPMI-1640 medium containing 10% fetal bovine serum. The cells were incubated at 37° C. in the presence of 5% CO2.
HL60 cells were plated at 1.2×10^5 cells/ml. Eighteen hours after plating, cells in duplicate were treated with drug. Four days later, the cells were harvested and a nitro blue tetrazolium reduction assay was performed (Collins et al., 1979; J. Exp. Med. 149:969-974). The percentage of differentiated cells was determined by counting a total of 200 cells and recording the number that contained intracellular black-blue formazan deposits. Verification of differentiation to monocytic cells was determined by measuring phagocytic activity (data not shown).

[5] = test system: 24-hdyroxylase (24Ohase) gene promoter in ROS 17/2.8 (bone) cells; assay: In vitro transcription assay (luciferase reporter); assay type: cell-based; settings: Ros17/2.8 (bone) cells, 24-hydroxylase promoter-luciferase, 16 h; FIG. 5
Protocol: FIG. 5 is a graph comparing the in vitro transcription activity of NEL with that of 1,25(OH)2D3.
(C) In vitro Transcription Assay
Transcription activity was measured in ROS 17/2.8 (bone) cells that were stably transfected with a 24-hdyroxylase (24Ohase) gene promoter upstream of a luciferase reporter gene (Arbour et al., 1998). Cells were given a range of doses. Sixteen hours after dosing the cells were harvested and luciferase activities were measured using a luminometer. (RLU=relative luciferase units)

[6] = Intestinal calcium transport (everted gut sac method); assay type: in vivo, Sprague-Dawley rats; settings: rats, four consecutive ip doses; equimolar or 27 times the dose of 1α,25-dihydroxyvitamin D3; FIG. 3
Text: FIG. 3 is a bar graph comparing the intestinal calcium transport activity of NEL with that of 1,25(OH)2D3.
(§1) (D) Intestinal Calcium Transport and Bone Calcium Mobilization
(§2) Male, weanling Sprague-Dawley rats were placed on Diet 11 (0.47% Ca) diet+AEK for one week followed by Diet 11 (0.02% Ca)+AEK for 3 weeks. The rats were then switched to a diet containing 0.47% Ca for one week followed by two weeks on a diet containing 0.02% Ca. Dose administration began during the last week on 0.02% calcium diet. Four consecutive ip doses were given approximately 24 hours apart. Twenty-four hours after the last dose, blood was collected from the severed neck and the concentration of serum calcium determined as a measure of bone calcium mobilization. The first 10 cm of the intestine was also collected for intestinal calcium transport analysis using the everted gut sac method.

[7] = Bone calcium mobilization (serum calcium); assay type: in vivo, Sprague-Dawley rats; settings: rats, four consecutive ip doses; equimolar or 27 times the dose of 1α,25-dihydroxyvitamin D3; FIG. 2
Text: FIG. 2 is a bar graph comparing the bone calcium mobilization activity of NEL with that of 1,25(OH)2D3.
as §1, §2

| Molecule | cell differentiation activity (cell differentiation) | binding activity to vitamin D receptors (vitamin D receptors) | calcemic activity as compared to 1α,25-dihydroxyvitamin D3 [1] | other results |
| --- | --- | --- | --- | --- |
| C[C@H](CCCC(C)(C)O)[C@H]1CC[C@H]2/C(=C/C=C3C[C@@H](O)C[C@H](O)C3)CCC[C@]12C [1α,25-dihydroxy-19-nor-vitamin D3] | high potency |  |  | calcium mobilizing activity ([1]; prior art): very low |
| 1α-hydroxy-2-methylene-19-nor-bishomopregnacalciferol | relatively high | relatively high | little if any |  |
| C=C1[C@H](O)CC(=C/C=C2\CCC[C@]3(C)[C@@H](CC)CC[C@@H]23)C[C@H]1O [1α-hydroxy-2-methylene-19-nor-pregnacalciferol] | relatively high | relatively high | little if any |  |
| 1α-hydroxy-2-methylene-19-nor-(20S)-homopregnacalciferol | relatively high | relatively high | little if any |  |
| C=C1[C@H](O)CC(=C/C=C2\CCC[C@]3(C)[C@@H]([C@H](C)CCCC(C)O)CC[C@@H]23)C[C@H]1O (stereo partly drawn) [NEL, (20R, 25S)-2-Methylene-19,26-dinor-1α,25-dihydroxyvitamin D3] |  |  |  | suppressing parathyroid hormone levels [2]: significant activity; binding to the vitamin D receptor compared with 1α,25-dihydroxyvitamin D3 [3]: somewhat more active; also recorded: relatively high binding; inducing differentiation of HL-60 cells compared with 1α,25-dihydroxyvitamin D3 [4]: equally active; stimulating transcription of a reporter gene compared with 1α,25-dihydroxyvitamin D3 [5]: equally active; intestinal calcium transport activity compared with 1α,25-dihydroxyvitamin D3 [6]: limited calcemic activity; also recorded: very low intestinal calcium transport activity; bone calcium mobilization (serum calcium) compared with 1α,25-dihydroxyvitamin D3 [7]: limited calcemic activity; also recorded: very low ability to mobilize calcium from bone |
